Results: paper PMC6073568, “Efficient Lead Finding, Activity Enhancement and Preliminary Selectivity Control of Nuclear Receptor Ligands Bearing a Phenanthridinone Skeleton” (International Journal of Molecular Sciences, 2018)
pIC50: −log10 of the molar value.

Experiments:
AR = molecular target: T1, AR (Homo sapiens, UniProt P10275); test: AR reporter gene assay in HEK293; format: cell-based; settings: reporter gene assay, HEK293; agonist dihydrotestosterone 0.3 nM; read-out: AR antagonistic activity (IC50), AR reporter gene
T1 sequence (P10275 1-920): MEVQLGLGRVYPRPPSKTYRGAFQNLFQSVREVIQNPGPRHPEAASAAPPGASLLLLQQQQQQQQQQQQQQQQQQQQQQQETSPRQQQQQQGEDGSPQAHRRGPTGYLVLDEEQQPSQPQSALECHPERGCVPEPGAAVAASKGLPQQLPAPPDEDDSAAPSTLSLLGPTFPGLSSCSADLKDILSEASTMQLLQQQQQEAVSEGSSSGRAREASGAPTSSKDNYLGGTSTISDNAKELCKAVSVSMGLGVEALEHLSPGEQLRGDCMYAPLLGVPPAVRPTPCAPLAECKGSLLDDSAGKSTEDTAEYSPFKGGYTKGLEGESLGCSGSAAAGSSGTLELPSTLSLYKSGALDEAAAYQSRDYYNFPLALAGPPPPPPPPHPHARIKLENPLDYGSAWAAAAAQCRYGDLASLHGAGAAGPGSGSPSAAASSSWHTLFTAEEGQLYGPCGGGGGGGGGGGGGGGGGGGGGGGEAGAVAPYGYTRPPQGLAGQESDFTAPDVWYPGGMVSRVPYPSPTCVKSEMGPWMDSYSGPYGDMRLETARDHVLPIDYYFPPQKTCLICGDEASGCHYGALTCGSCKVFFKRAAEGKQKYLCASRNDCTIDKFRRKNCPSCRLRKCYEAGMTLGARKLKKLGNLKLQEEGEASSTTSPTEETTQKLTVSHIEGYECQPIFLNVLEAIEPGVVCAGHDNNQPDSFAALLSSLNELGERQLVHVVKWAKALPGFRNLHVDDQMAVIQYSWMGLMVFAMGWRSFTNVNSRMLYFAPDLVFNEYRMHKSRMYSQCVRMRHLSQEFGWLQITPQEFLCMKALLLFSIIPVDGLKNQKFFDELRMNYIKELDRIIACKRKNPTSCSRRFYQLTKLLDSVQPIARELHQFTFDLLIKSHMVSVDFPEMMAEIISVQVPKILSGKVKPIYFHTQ

LXRα = molecular target: T2, LXRα (Homo sapiens, UniProt Q13133); test: LXRα reporter gene assay in HEK293; format: cell-based; settings: read-out: LXRα antagonistic activity (IC50)
T2 construct: CMX-GAL4N-hLXRα-LBD; expressed in transfected cells; host or cells: HEK293
T2 sequence (Q13133 209-447 limits assumed): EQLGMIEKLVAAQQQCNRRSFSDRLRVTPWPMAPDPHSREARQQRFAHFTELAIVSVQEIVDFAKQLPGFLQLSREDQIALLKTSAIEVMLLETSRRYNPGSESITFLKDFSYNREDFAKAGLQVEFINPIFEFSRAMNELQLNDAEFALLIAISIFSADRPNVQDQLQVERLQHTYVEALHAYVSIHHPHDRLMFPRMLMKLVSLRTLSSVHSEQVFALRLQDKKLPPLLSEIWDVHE

GR = molecular target: T3, GR (Homo sapiens, UniProt P04150); test: GR reporter gene assay in HEK293; format: cell-based; settings: reporter gene assay, HEK293; agonist dexamethasone 1 nM; read-out: GR antagonistic activity (IC50)
T3 construct: expressed in transfected cells; host or cells: HEK293
T3 sequence (P04150 1-777): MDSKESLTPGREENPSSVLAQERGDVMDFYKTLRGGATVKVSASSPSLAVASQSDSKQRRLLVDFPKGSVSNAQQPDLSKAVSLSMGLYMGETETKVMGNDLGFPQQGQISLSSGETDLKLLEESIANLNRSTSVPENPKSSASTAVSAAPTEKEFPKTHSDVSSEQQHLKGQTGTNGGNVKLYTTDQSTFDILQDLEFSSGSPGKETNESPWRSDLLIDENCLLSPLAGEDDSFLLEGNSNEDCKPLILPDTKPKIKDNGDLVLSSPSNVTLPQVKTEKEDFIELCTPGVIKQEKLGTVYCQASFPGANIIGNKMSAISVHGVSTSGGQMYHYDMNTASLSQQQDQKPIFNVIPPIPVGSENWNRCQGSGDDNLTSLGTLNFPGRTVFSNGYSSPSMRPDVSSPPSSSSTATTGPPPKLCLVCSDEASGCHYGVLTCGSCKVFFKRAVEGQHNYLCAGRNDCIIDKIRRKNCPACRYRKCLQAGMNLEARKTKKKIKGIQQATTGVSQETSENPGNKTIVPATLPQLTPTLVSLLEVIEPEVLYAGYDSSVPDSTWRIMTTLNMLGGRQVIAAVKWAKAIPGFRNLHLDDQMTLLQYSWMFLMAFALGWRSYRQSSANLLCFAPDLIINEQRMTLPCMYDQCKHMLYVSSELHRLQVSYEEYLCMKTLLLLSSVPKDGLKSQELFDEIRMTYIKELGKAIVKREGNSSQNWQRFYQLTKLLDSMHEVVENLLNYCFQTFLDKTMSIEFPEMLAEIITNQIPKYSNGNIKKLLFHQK

LXRβ = molecular target: T4, LXRβ (Homo sapiens, UniProt P55055); test: LXRβ reporter gene assay in HEK293; format: cell-based; settings: read-out: LXRβ antagonistic activity (IC50)
T4 construct: CMX-GAL4N-hLXRβ-LBD; expressed in transfected cells; host or cells: HEK293
T4 sequence (P55055 222-460 limits assumed): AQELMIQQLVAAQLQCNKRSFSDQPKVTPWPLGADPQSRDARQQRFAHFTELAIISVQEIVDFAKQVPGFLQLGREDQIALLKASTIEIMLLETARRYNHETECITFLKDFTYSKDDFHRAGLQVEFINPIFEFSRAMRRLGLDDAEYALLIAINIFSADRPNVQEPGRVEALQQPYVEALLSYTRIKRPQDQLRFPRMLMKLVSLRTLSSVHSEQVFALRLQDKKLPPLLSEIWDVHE

PR = molecular target: T5, PR (Homo sapiens, UniProt P06401); settings: alkaline phosphatase, T47D cells, progesterone 1 nM; read-out: PR antagonistic activity (IC50); cited from earlier work
T5 sequence (P06401 1-933): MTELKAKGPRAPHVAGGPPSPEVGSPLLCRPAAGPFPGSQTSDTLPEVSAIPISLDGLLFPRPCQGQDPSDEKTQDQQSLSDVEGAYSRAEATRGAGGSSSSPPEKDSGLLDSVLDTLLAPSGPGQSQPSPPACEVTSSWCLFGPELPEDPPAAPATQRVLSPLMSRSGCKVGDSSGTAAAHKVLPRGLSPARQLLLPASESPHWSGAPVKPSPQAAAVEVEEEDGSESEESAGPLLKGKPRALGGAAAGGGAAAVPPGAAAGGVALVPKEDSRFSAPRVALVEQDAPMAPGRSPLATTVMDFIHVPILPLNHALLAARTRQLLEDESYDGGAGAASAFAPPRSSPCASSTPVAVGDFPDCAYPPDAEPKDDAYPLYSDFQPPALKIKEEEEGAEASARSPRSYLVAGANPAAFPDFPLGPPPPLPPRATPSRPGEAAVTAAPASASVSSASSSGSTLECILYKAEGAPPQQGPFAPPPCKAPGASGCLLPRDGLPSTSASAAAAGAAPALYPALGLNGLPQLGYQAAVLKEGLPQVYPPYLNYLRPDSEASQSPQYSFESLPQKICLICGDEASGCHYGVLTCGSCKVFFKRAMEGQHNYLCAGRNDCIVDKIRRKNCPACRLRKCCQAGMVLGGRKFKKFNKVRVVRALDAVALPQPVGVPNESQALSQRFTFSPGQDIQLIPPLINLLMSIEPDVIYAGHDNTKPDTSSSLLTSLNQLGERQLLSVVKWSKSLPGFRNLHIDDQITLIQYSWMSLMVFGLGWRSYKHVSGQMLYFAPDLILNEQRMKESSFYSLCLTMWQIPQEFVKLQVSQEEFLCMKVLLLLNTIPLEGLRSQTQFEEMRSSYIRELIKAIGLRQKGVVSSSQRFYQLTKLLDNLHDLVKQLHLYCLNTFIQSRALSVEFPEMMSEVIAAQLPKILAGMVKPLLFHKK

RORβ = molecular target: T6, RORβ (Homo sapiens, UniProt Q92753); settings: reporter gene assay, HEK293; read-out: RORβ inverse agonistic activity (IC50); cited from earlier work
T6 construct: expressed in transfected cells; host or cells: HEK293
T6 sequence (Q92753 1-459 isoform Q92753-1): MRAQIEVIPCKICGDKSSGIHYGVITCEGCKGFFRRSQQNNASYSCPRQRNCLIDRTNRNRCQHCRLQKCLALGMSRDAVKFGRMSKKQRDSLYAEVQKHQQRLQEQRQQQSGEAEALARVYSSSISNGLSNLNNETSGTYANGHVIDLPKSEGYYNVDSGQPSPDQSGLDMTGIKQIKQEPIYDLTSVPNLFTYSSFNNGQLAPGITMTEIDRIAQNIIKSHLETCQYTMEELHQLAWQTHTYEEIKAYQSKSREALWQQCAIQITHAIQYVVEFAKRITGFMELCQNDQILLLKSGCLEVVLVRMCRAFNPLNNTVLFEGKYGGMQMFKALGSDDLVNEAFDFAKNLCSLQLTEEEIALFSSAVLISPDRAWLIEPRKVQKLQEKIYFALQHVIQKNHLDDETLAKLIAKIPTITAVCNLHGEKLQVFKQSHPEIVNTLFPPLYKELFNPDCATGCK

RORγ = molecular target: T7, RORγ (Homo sapiens, UniProt P51449); settings: reporter gene assay, HEK293; read-out: RORγ inverse agonistic activity (IC50); cited from earlier work
T7 construct: expressed in transfected cells; host or cells: HEK293
T7 sequence (P51449 1-518): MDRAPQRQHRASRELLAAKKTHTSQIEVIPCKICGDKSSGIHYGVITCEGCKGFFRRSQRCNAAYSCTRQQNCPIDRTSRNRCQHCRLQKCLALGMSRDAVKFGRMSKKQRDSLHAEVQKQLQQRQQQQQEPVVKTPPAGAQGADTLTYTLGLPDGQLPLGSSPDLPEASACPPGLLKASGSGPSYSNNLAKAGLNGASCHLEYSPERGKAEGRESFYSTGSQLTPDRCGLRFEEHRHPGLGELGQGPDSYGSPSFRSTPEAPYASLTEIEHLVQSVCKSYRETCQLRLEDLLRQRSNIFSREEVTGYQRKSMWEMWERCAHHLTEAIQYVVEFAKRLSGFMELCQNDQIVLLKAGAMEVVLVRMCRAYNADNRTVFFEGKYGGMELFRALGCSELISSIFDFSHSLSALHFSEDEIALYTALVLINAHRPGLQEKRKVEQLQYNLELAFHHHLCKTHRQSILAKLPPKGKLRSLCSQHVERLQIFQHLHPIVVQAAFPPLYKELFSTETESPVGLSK

RORα = molecular target: T8, RORα (Homo sapiens, UniProt P35398); settings: reporter gene assay, HEK293; read-out: RORα inverse agonistic activity (IC50); cited from earlier work
T8 construct: expressed in transfected cells; host or cells: HEK293
T8 sequence (P35398 1-523): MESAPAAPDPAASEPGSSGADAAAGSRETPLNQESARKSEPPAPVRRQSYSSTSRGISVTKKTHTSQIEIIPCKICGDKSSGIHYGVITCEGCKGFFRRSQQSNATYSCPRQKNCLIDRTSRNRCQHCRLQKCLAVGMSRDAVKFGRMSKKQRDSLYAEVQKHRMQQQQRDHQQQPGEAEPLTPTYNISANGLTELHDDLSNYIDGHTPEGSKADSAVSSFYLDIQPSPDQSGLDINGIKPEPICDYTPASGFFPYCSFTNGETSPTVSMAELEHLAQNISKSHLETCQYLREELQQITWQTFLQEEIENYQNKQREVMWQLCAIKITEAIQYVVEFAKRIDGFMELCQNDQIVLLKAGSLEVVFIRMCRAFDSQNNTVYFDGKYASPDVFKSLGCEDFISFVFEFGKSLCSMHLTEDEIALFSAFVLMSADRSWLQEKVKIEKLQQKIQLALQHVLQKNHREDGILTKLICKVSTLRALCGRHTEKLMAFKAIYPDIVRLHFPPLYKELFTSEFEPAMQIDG

| pIC50 (AR) | pIC50 (LXRα) | pIC50 (GR) | pIC50 (LXRβ) | SMILES | pIC50 (PR) | pIC50 (RORβ) | pIC50 (RORγ) | pIC50 (RORα) |
| --- | --- | --- | --- | --- | --- | --- | --- | --- |
| 5.25 | 4.92 | 4.77 | 5.16 | CCCn1c(=O)c2ccccc2c2cc(C(O)(C(F)(F)F)C(F)(F)F)ccc21 [Compound 15] |  |  |  | 4.96 |
| 5.40 | 4.80 | < 4.70 | 5.00 | CCCCCCn1c(=O)c2ccccc2c2cc(C(O)(C(F)(F)F)C(F)(F)F)ccc21 [Compound 16] |  |  |  |  |
| 5.19 | 4.92 | 4.80 | 5.52 | CCCCn1c(=O)c2ccc(C)cc2c2cc(C(O)(C(F)(F)F)C(F)(F)F)ccc21 [Compound 36] | 5.43 |  |  |  |
| < 5.52 | 5.15 | < 4.70 |  | CCCCn1c(=O)c2ccc(O)cc2c2cc(C(O)(C(F)(F)F)C(F)(F)F)ccc21 [Compound 38] | 5.29 |  |  |  |

Continued, molecule first:

| SMILES | pIC50 (AR) | pIC50 (LXRα) | pIC50 (GR) | pIC50 (LXRβ) | pIC50 (PR) | pIC50 (RORβ) | pIC50 (RORγ) | pIC50 (RORα) |
| --- | --- | --- | --- | --- | --- | --- | --- | --- |
| CCCCn1c(=O)c2ccc(Cl)cc2c2cc(C(O)(C(F)(F)F)C(F)(F)F)ccc21 [Compound 2] | 5.28 | 5.04 | 5.00 | 6.06 | 5.37 |  |  |  |
| Cc1cc(C(O)(C(F)(F)F)C(F)(F)F)cc2c3ccc(F)cc3c(=O)n(C)c12 [Compound 3] | 6.52 |  |  |  |  | < 4.70 | < 4.70 | < 4.70 |
| CCCCn1c(=O)c2ccccc2c2cc(C)ccc21 [Compound 8] | 4.96 | 4.77 | < 4.70 | 4.80 |  |  | 4.77 | 4.74 |
| CCCCn1c(=O)c2ccccc2c2cc(CC)ccc21 [Compound 9] | 4.72 | 4.77 | 4.72 | 4.80 |  |  |  |  |
| Cc1cc(C(O)(C(F)(F)F)C(F)(F)F)cc2c1[nH]c(=O)c1ccccc12 [Compound 40] |  |  |  |  |  | < 4.70 | < 4.70 | < 4.70 |
| Cc1cc(C(O)(C(F)(F)F)C(F)(F)F)cc2c1[nH]c(=O)c1cc(F)ccc12 [Compound 44] | 5.77 |  |  | < 4.70 |  | < 4.70 | < 4.70 | < 4.70 |
